# In ChEMBL document CHEMBL4411343, “Synthesis and biological evaluation of novel N-substituted nipecotic acid derivatives with a cis-alkene spacer as GABA uptake inhibitors” (Bioorg Med Chem, 2019):
# Tests used:
# [1] = target: Sodium- and chloride-dependent betaine transporter (Mus musculus); assay: Inhibition of mouse GAT2 expressed in HEK293 cells assessed as reduction in [3H]GABA uptake preincubated for 25 mins followed by [3H]GABA addition and measured after 10 mins by microbeta liquid scintillation counting method
# [2] = target: Sodium- and chloride-dependent GABA transporter 2 (Mus musculus); assay: Inhibition of mouse GAT3 expressed in HEK293 cells assessed as reduction in [3H]GABA uptake preincubated for 25 mins followed by [3H]GABA addition and measured after 4 mins by microbeta liquid scintillation counting method
# [3] = target: T1, Sodium- and chloride-dependent GABA transporter 1 (Mus musculus, UniProt P31648); assay: Inhibition of mouse GAT1 expressed in HEK293 cells assessed as reduction in [3H]GABA uptake preincubated for 25 mins followed by [3H]GABA addition and measured after 4 mins by microbeta liquid scintillation counting method; type: cell-based
# [4] = target: T1, Sodium- and chloride-dependent GABA transporter 1; assay: Displacement of NO711 from mouse GAT1 expressed in stable HEK293 cell membranes preincubated for 10 mins followed by NO711 addition and measured after 40 mins by LC-ESI-MS/MS analysis
# GABA transporter 4 = target: T2, GABA transporter 4 (Mus musculus, UniProt P31650); assay: Inhibition of mouse GAT4 expressed in HEK293 cells assessed as reduction in [3H]GABA uptake preincubated for 25 mins followed by [3H]GABA addition and measured after 4 mins by microbeta liquid scintillation counting method; type: cell-based
# T2 sequence (P31650 whole entry): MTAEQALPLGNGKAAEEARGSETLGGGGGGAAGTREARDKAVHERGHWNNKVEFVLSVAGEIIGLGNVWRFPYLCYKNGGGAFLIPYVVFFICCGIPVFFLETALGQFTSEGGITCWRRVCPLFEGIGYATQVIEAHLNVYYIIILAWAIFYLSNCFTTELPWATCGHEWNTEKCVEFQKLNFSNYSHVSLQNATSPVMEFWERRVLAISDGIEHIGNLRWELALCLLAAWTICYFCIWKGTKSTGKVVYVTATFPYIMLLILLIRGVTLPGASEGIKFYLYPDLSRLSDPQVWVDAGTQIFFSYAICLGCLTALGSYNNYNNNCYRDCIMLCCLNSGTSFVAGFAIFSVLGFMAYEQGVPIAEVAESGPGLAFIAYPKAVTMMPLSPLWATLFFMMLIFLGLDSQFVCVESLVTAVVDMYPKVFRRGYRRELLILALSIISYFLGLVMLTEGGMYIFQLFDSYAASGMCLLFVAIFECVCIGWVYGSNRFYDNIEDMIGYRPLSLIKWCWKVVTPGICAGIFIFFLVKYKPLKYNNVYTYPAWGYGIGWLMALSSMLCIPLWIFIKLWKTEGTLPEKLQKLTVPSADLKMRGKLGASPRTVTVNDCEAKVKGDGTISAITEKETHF
# [5] = test system: Sodium- and chloride-dependent GABA transporter 2 (Mus musculus); assay: Inhibition of mouse GAT3 expressed in HEK293 cells assessed as remaining [3H]GABA uptake at 100 uM preincubated for 25 mins followed by [3H]GABA addition and measured after 4 mins by liquid scintillation counting method relative to control
# [6] = test system: Sodium- and chloride-dependent betaine transporter (Mus musculus); assay: Inhibition of mouse GAT2 expressed in HEK293 cells assessed as remaining [3H]GABA uptake at 100 uM preincubated for 25 mins followed by [3H]GABA addition and measured after 10 mins by liquid scintillation counting method relative to control
# [7] = target: T1, Sodium- and chloride-dependent GABA transporter 1; assay: Inhibition of mouse GAT1 expressed in HEK293 cells assessed as remaining [3H]GABA uptake at 100 uM preincubated for 25 mins followed by [3H]GABA addition and measured after 4 mins by liquid scintillation counting method relative to control; type: cell-based; settings: read-out: Activity
# [8] = target: T3, GABA transporter 4 (Mus musculus) (UniProt P31650); assay: Inhibition of mouse GAT4 expressed in HEK293 cells assessed as remaining [3H]GABA uptake at 100 uM preincubated for 25 mins followed by [3H]GABA addition and measured after 4 mins by liquid scintillation counting method relative to control; type: cell-based
# T3 sequence (whole entry): T2 sequence (P31650 whole entry)
# [9] = target: T1, Sodium- and chloride-dependent GABA transporter 1; assay: Displacement of NO711 from mouse GAT1 expressed in stable HEK293 cells assessed as remaining specific NO711 binding level preincubated at 100 uM for 10 mins followed by NO711 addition and measured after 40 mins by LC-ESI-MS/MS analysis; type: cell-based; settings: read-out: Activity
pIC50 [1],pIC50 [2],IC50 [3] [µM],Ki [4] [µM],IC50 (GABA transporter 4) [µM],activity at 100 µM [5] [%],activity at 100 µM [6] [%],activity at 100 µM [7] [%],Activity [8] [%],activity at 100 µM [9] [%],Structure (SMILES)
4.36,4.61,–,–,–,–,–,–,–,–,COc1ccc(C(C#CCN2CCCC(C(=O)O)C2)(c2ccc(OC)cc2)c2ccc(OC)cc2)cc1 (racemic)
–,–,1,0.513,15.1,56,70,–,–,–,O=C(O)C1CCCN(C/C=C\CC(c2ccccc2)(c2ccccc2)c2ccccc2)C1 (racemic)
–,–,–,26.3,49,72,68,62,–,–,COc1ccc(C(/C=C\CN2CCCC(C(=O)O)C2)c2ccc(OC)cc2)cc1 (racemic)
–,–,74.1,25.7,57.5,–,65,–,–,–,COc1ccc(CC(/C=C\CN2CCCC(C(=O)O)C2)(c2ccc(OC)cc2)c2ccc(OC)cc2)cc1 (racemic)
–,–,–,–,–,78,67,69,83,78,COc1ccc(C(/C=C\CN2CCCC(C(=O)O)C2)(c2ccc(OC)cc2)c2nccs2)cc1 (racemic)
–,–,30.9,23.4,16.2,–,63,–,–,–,COc1ccc(C(/C=C\CCN2CCCC(C(=O)O)C2)(c2ccc(OC)cc2)c2ccc(OC)cc2)cc1 (racemic)
–,–,38,41.7,63.1,57,–,–,–,–,COc1ccc(C(/C=C\CN2CCCC(C(=O)O)C2)(Cc2ccccc2)c2ccc(OC)cc2)cc1 (racemic)
–,–,40.7,7.41,17.4,–,–,–,–,–,O=C(O)C1CCCN(CC/C=C\C(c2ccccc2)(c2ccccc2)c2ccccc2)C1 (racemic)
–,–,79.4,–,33.1,49,–,–,–,62,COc1ccc(C(/C=C\CN2CCCC(C(=O)O)C2)(c2ccc(OC)cc2)c2ccsc2)cc1 (racemic)
–,–,95.5,53.7,10,–,–,–,–,–,COc1ccc(C(/C=C\CN2CCCC(C(=O)O)C2)(c2ccc(OC)cc2)c2ccc3c(c2)OCO3)cc1 (racemic)
–,–,41.7,24,61.7,–,52,–,–,–,COc1ccc(C(C/C=C\CN2CCCC(C(=O)O)C2)(c2ccc(OC)cc2)c2ccc(OC)cc2)cc1 (racemic)
–,–,–,–,–,97,85,81,80,53,COc1ccc(C(O)(/C=C\CN2CCCC(C(=O)O)C2)c2ccc(OC)cc2)cc1 (racemic)

Structure (SMILES),pIC50 [1],pIC50 [2],IC50 [3] [µM],Ki [4] [µM],IC50 (GABA transporter 4) [µM],activity at 100 µM [5] [%],activity at 100 µM [6] [%],activity at 100 µM [7] [%],Activity [8] [%],activity at 100 µM [9] [%]
COc1ccc(C(/C=C\CN2CCCC(C(=O)O)C2)(c2ccc(OC)cc2)c2ccc(OC)cc2)cc1 (racemic),–,–,–,17.8,–,–,–,–,–,–
